Source: paper PMC9304322, “Targeting retinoic acid receptor alpha-corepressor interaction activates chaperone-mediated autophagy and protects against retinal degeneration” (Nature Communications, 2022)
Values joined by “and” are separate entries in the source; they are usually repeats but may differ in a detail not shown here. Equal values may be shown once.

Experiments:
[1] = system: NIH3T3 stably expressing the KFERQ-PS-Dendra; experiment: CMA activity, KFERQ-PS-Dendra fluorescent reporter in NIH3T3 mouse fibroblasts; format: cell-based; parameters: CMA activity (Fig. 1d), MEAN / CMA activity (Fig. 1e-g), mean / CMA activity (Fig. 1d), individual experiments / CMA activity, mean (Fig. S2c, second panel) / CMA activity, mean (Fig. S2c, first panel) / CMA activity, mean (Fig. S2c, third panel): unit not given here; settings: for CMA activity (Fig. 1e-g), mean: n = 4; for CMA activity, mean (Fig. S2c, first panel) / CMA activity, mean (Fig. S2c, second panel) / CMA activity, mean (Fig. S2c, third panel): compound and cell type of panel not shown
Description: (§1) Cells were transduced with lentivirus carrying the KFERQ-PS-Dendra reporter as before. Cells were photoactivated by exposure to a 3.5 mA (current constant) light emitting diode (LED: Norlux, 405 nm) for 3 min and then plated in glass-bottom 96 well plates. At the desired times, cells were fixed with 4% PFA and imaged using high-content microscopy (Operetta system, Perkin Elmer). Images were quantified using the manufacturer’s software in a minimum of 1,200 cells in 9 independent fields per well. […] This was particularly important in the case of primary human cells where the efficiency of transduction was ~65%. To avoid confounding effects for drug-induced changes in cell volume or adherence to the plate that could bring a fraction of the cells per field outside of focus, we set a threshold to count only […] that have at least 1/10 of the average number of […] detected in the untreated wells for each cell type (3–4 puncta/cell in the case of NIH3T3 and N2a cells and 5 puncta/cell in primary human fibroblasts).

[2] = Pharmacokinetic analysis, plasma and brain;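 for Fig. 3a level, single animals 1-3: plasma concentration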;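 for Fig. 3b level, single animals 1-3: brain concentration in ng/g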; format: in vivo, ICR (CD-1) male mice; parameters: Fig. 3a level, single animals 1-3 / Fig. 3b level, single animals 1-3: unit not given here
[3] = system: neuroblastoma cell line N2a expressing the KFERQ-PS-Dendra reporter; experiment: CMA activity, KFERQ-PS-Dendra reporter in N2a cells; format: cell-based, mouse; parameters: CMA activity, mean (Fig. S2a): unit not given here
Description: as §1

[4] = system: NIH3T3; experiment: Intracellular proteolysis of long half-life proteins; format: cell-based, mouse
Description: Confluent cells were labelled with [^3H]leucine (2μCi/ml) (NEN-PerkinElmer Life Sciences) for 48 h and then extensively washed and maintained in medium with an excess of unlabeled leucine. Proteolysis was calculated from aliquots of the medium taken at different times and precipitated in trichloroacetic acid, as the amount of acid-precipitable radioactivity transformed to acid-soluble radioactivity at each time. Where indicated cell were treated during the chase with […] leupeptin (Sigma, #108975) and […] NH4Cl (to determine lysosomal degradation) or with 100 μm MRT 68921 dihydrochloride (Tocris, #5780) (to determine macroautophagy degradation).

[5] = system: primary human fibroblast expressing the KFERQ-PS-Dendra reporter; experiment: CMA activity, KFERQ-PS-Dendra reporter in primary human fibroblasts; format: cell-based; parameters: key to CMA activity, mean (Fig. S2c): puncta per cell
Description: as §1

[6] = concentration 10 (unit not given)
[7] = concentration 15 (unit not given)
[8] = concentration 20 (unit not given)
[9] = concentration 25 (unit not given)
[10] = concentration 30 (unit not given)
[11] = concentration 40 (unit not given)
[12] = concentration 50 (unit not given)

Clc1ccc2c(c1)OCC(c1ccc(-c3ccccc3)cc1)=N2 [CA39]
CMA activity (Fig. 1d), MEAN ([1]; 20 μM of each compound, n = 3 independent experiments): 4.580
CMA activity (Fig. 1d), individual experiments ([1]; 20 μM of each compound, single experiments): 5.482 and 4.270 and 3.988
CMA activity (Fig. 1e-g), mean ([1]; 12h, concentration 0.02 (unit not given)): 3.045
CMA activity (Fig. 1e-g), mean ([1]; 12h, concentration 0.2): 3.489
CMA activity (Fig. 1e-g), mean ([1]; 12h, concentration 2): 3.493
CMA activity (Fig. 1e-g), mean ([1]; 12h, concentration 5): 8.168
CMA activity (Fig. 1e-g), mean ([1]; 12h, concentration 10): 10.4134
CMA activity (Fig. 1e-g), mean ([1]; 12h, concentration 20): 22.9828
CMA activity (Fig. 1e-g), mean ([1]; 12h, concentration 30): 30.7253
CMA activity (Fig. 1e-g), mean ([1]; 12h, concentration 40): 33.0782
CMA activity (Fig. 1e-g), mean ([1]; 12h, concentration 50): 21.8692
CMA activity (Fig. 1e-g), mean ([1]; 24h, concentration 0.02): 3.576
CMA activity (Fig. 1e-g), mean ([1]; 24h, concentration 0.2): 3.419
CMA activity (Fig. 1e-g), mean ([1]; 24h, concentration 2): 5.488
CMA activity (Fig. 1e-g), mean ([1]; 24h, concentration 5): 11.6083
CMA activity (Fig. 1e-g), mean ([1]; 24h, concentration 10): 17.8717
CMA activity (Fig. 1e-g), mean ([1]; 24h, concentration 20): 34.1318
CMA activity (Fig. 1e-g), mean ([1]; 24h, concentration 30): 35.2802
CMA activity (Fig. 1e-g), mean ([1]; 24h, concentration 40): 50.2311
CMA activity (Fig. 1e-g), mean ([1]; 24h, concentration 50): 60.1885
CMA activity (Fig. 1h-j), mean, untreated (0) = 1 ([1]; concentration 0.2, 12+12w (12 h, then 12 h after washing out)): 1.104
CMA activity (Fig. 1h-j), mean, untreated (0) = 1 ([1]; concentration 0.2, 12h): 0.9726
CMA activity (Fig. 1h-j), mean, untreated (0) = 1 ([1]; concentration 0.2, 24h): 1.209
CMA activity (Fig. 1h-j), mean, untreated (0) = 1 ([1]; concentration 2, 12+12w): 1.202
CMA activity (Fig. 1h-j), mean, untreated (0) = 1 ([1]; concentration 2, 12h): 0.9735
CMA activity (Fig. 1h-j), mean, untreated (0) = 1 ([1]; concentration 2, 24h): 1.941
CMA activity (Fig. 1h-j), mean, untreated (0) = 1 ([1]; concentration 5, 12+12w): 1.546
CMA activity (Fig. 1h-j), mean, untreated (0) = 1 ([1]; concentration 5, 12h): 2.277
CMA activity (Fig. 1h-j), mean, untreated (0) = 1 ([1]; concentration 5, 24h): 4.106
CMA activity, mean (Fig. S2c, first panel) [1, 6]: 74.2616
CMA activity, mean (Fig. S2c, second panel) [1, 6]: 29.9019
CMA activity, mean (Fig. S2c, third panel) [1, 6]: 74.2616
CMA activity (Fig. 1h-j), mean, untreated (0) = 1 ([1]; concentration 10, 12+12w): 2.775
CMA activity (Fig. 1h-j), mean, untreated (0) = 1 ([1]; concentration 10, 12h): 2.902
CMA activity (Fig. 1h-j), mean, untreated (0) = 1 ([1]; concentration 10, 24h): 6.322
CMA activity, mean (Fig. S2c, first panel) [1, 7]: 68.2986
CMA activity, mean (Fig. S2c, second panel) [1, 7]: 41.4399
CMA activity, mean (Fig. S2c, third panel) [1, 7]: 68.2986
CMA activity, mean (Fig. S2c, first panel) [1, 8]: 74.8347
CMA activity, mean (Fig. S2c, second panel) [1, 8]: 54.0516
CMA activity, mean (Fig. S2c, third panel) [1, 8]: 74.8347
CMA activity (Fig. 1h-j), mean, untreated (0) = 1 ([1]; concentration 20, 12+12w): 4.843
CMA activity (Fig. 1h-j), mean, untreated (0) = 1 ([1]; concentration 20, 12h): 6.406
CMA activity (Fig. 1h-j), mean, untreated (0) = 1 ([1]; concentration 20, 24h): 12.0736
CMA activity, mean (Fig. S2c, first panel) [1, 9]: 71.1281
CMA activity, mean (Fig. S2c, second panel) [1, 9]: 57.8636
CMA activity, mean (Fig. S2c, third panel) [1, 9]: 71.1281
CMA activity, mean (Fig. S2c, first panel) [1, 10]: 76.3164
CMA activity, mean (Fig. S2c, second panel) [1, 10]: 40.4368
CMA activity, mean (Fig. S2c, third panel) [1, 10]: 76.3164
CMA activity (Fig. 1h-j), mean, untreated (0) = 1 ([1]; concentration 30, 12+12w): 9.0956
CMA activity (Fig. 1h-j), mean, untreated (0) = 1 ([1]; concentration 30, 12h): 8.564
CMA activity (Fig. 1h-j), mean, untreated (0) = 1 ([1]; concentration 30, 24h): 12.4798
CMA activity, mean (Fig. S2c, first panel) [1, 11]: 78.3071
CMA activity, mean (Fig. S2c, second panel) [1, 11]: 58.9165
CMA activity, mean (Fig. S2c, third panel) [1, 11]: 78.3071
CMA activity, mean (Fig. S2c, first panel) [1, 12]: 53.1619
CMA activity, mean (Fig. S2c, second panel) [1, 12]: 68.5848
CMA activity, mean (Fig. S2c, third panel) [1, 12]: 53.1619
CMA activation compared with AR7 ([1]; fluorescent CMA reporter in mouse fibroblasts, basal and inducible CMA): > 40 % CMA of AR7
toxicity in cells ([1]; mouse fibroblasts): without noticeable toxicity
Fig. 3a level, single animals 1-3 ([2]; IV, Time 0.083 h): 52.0116 and 70.6516 and 60.713
Fig. 3b level, single animals 1-3 ([2]; IV, Time 0.083 h): 52.0116 and 70.6516 and 60.713
predicted brain concentration ([2]; intraperitoneal 30 mg/kg bw, converted from Cmax or AUC (CA39: AUC and extended half-life)): 10 to 20 µM
CMA activity, mean relative to concentration 0 = 1 (Fig. S2b) ([3]; 12+12w, concentration 0.2): 0.9934
CMA activity, mean relative to concentration 0 = 1 (Fig. S2b) ([3]; 12+12w, concentration 2): 0.9832
CMA activity, mean relative to concentration 0 = 1 (Fig. S2b) ([3]; 12+12w, concentration 5): 3.155
CMA activity, mean relative to concentration 0 = 1 (Fig. S2b) ([3]; 12+12w, concentration 10): 2.605
CMA activity, mean relative to concentration 0 = 1 (Fig. S2b) ([3]; 12+12w, concentration 20): 4.196
CMA activity, mean relative to concentration 0 = 1 (Fig. S2b) ([3]; 12+12w, concentration 30): 3.752
CMA activity, mean (Fig. S2a) ([3]; 12h, concentration 0.02): 3.028
CMA activity, mean (Fig. S2a) ([3]; 12h, concentration 0.2): 4.51
CMA activity, mean relative to concentration 0 = 1 (Fig. S2b) ([3]; 12h, concentration 0.2): 1.03
CMA activity, mean (Fig. S2a) ([3]; 12h, concentration 2): 4.84
CMA activity, mean relative to concentration 0 = 1 (Fig. S2b) ([3]; 12h, concentration 2): 1.106
CMA activity, mean (Fig. S2a) ([3]; 12h, concentration 5): 10.9424
CMA activity, mean relative to concentration 0 = 1 (Fig. S2b) ([3]; 12h, concentration 5): 2.5
CMA activity, mean (Fig. S2a) ([3]; 12h, concentration 10): 9.785
CMA activity, mean relative to concentration 0 = 1 (Fig. S2b) ([3]; 12h, concentration 10): 2.2356
CMA activity, mean (Fig. S2a) ([3]; 12h, concentration 20): 12.4415
CMA activity, mean relative to concentration 0 = 1 (Fig. S2b) ([3]; 12h, concentration 20): 2.842
CMA activity, mean (Fig. S2a) ([3]; 12h, concentration 30): 12.3771
CMA activity, mean relative to concentration 0 = 1 (Fig. S2b) ([3]; 12h, concentration 30): 2.828
CMA activity, mean (Fig. S2a) ([3]; 12h, concentration 40): 18.3499
CMA activity, mean (Fig. S2a) ([3]; 12h, concentration 50): 17.0288
CMA activity, mean (Fig. S2a) ([3]; 12h, concentration 60): 19.2922
CMA activity, mean (Fig. S2a) ([3]; 24h, concentration 0.02): 3.481
CMA activity, mean (Fig. S2a) ([3]; 24h, concentration 0.2): 5.502
CMA activity, mean relative to concentration 0 = 1 (Fig. S2b) ([3]; 24h, concentration 0.2): 1.258
CMA activity, mean (Fig. S2a) ([3]; 24h, concentration 2): 4.784
CMA activity, mean relative to concentration 0 = 1 (Fig. S2b) ([3]; 24h, concentration 2): 1.094
CMA activity, mean (Fig. S2a) ([3]; 24h, concentration 5): 12.5789
CMA activity, mean relative to concentration 0 = 1 (Fig. S2b) ([3]; 24h, concentration 5): 2.876
CMA activity, mean (Fig. S2a) ([3]; 24h, concentration 10): 14.7898
CMA activity, mean relative to concentration 0 = 1 (Fig. S2b) ([3]; 24h, concentration 10): 3.382
CMA activity, mean (Fig. S2a) ([3]; 24h, concentration 20): 22.8096
CMA activity, mean relative to concentration 0 = 1 (Fig. S2b) ([3]; 24h, concentration 20): 5.216
CMA activity, mean (Fig. S2a) ([3]; 24h, concentration 30): 25.6157
CMA activity, mean relative to concentration 0 = 1 (Fig. S2b) ([3]; 24h, concentration 30): 5.858
CMA activity, mean (Fig. S2a) ([3]; 24h, concentration 40): 31.0418
CMA activity, mean (Fig. S2a) ([3]; 24h, concentration 50): 34.0174
CMA activity, mean (Fig. S2a) ([3]; 24h, concentration 60): 32.9288
CMA activation in neuron-related mouse cells ([3]; in words): efficiently activated CMA
duration of the increase in degradation of long-lived proteins ([4]; NIH3T3, 10 μM): remained upregulated 24 h
Lysosomal proteolysis, Mean (Fig. S3c) ([4]; Time 6): 2.60
Lysosomal proteolysis, Mean (Fig. S3c) ([4]; Time 12): 7.36
CMA activity, mean (Fig. S2c) ([5]; concentration 0.02): 24.0456
CMA activity, mean (Fig. S2c) ([5]; concentration 0.2): 28.2677
CMA activity, mean (Fig. S2c) ([5]; concentration 2): 18.5469
CMA activation in human cells ([5]; in words): efficiently activated CMA
